Columns and labels:
Assay type in all cases: cell-based
Staph Aureus = assay: Preservative efficacy test (PET), Staph Aureus; conditions: boric acid/mannitol/NaCl, pH 6.0
Source text: (§1) The present invention is particularly useful for the provision of multi-dose pharmaceutical (e.g., ophthalmic) compositions that have sufficient antimicrobial activity to allow the compositions to satisfy the USP preservative efficacy requirements, as well as other preservative efficacy standards for aqueous pharmaceutical compositions.
(§2) The preservative efficacy standards for multi-dose ophthalmic solutions in the U.S. and other countries/regions are set forth in the following table:
(§3) Concentrations for the various ingredients of the compositions of the examples provided below are w/v % unless otherwise specifically stated. The compositions of Examples A-D and their preservation efficacy testing (PET) results are provided below.

Bacteria, Fungi = assay: PET overall result (Pass/Fail against USP / Ph. Eur. criteria); conditions: for PET Results (Pass/Fail): boric acid/mannitol/NaCl, pH 6.0
Source text: as §1, §2, §3

Candida A. = assay: Preservative efficacy test (PET), Candida A.; conditions: boric acid/mannitol/NaCl, pH 6.0
Source text: as §1, §2, §3

canine epithelial cells = assay: Cytotoxicity, neutral red retention
Source text: FIGS. 1 and 2 illustrate the relative cytotoxicity of compounds, some of which are in accordance with the present invention.
FIGS. 1 and 2 illustrate the cytotoxicity of the compounds shown in the above examples. In particular, these Figures show the neutral red retention of canine epithelial cells for the various compounds with the greater neutral red retention showing the lower the cytotoxicity. […] As such, many of these phosphonium antimicrobial agents can be used as suitable replacements for benzalkonium chloride particularly in circumstances where benzalkonium chloride is unsuitable (e.g., is incompatible with other ingredients in a solution).

E. Coli = assay: Preservative efficacy test (PET), E. Coli; conditions: boric acid/mannitol/NaCl, pH 6.0
Source text: as §1, §2, §3

Aspergillus N. = assay: Preservative efficacy test (PET), Aspergillus N.; conditions: boric acid/mannitol/NaCl, pH 6.0
Source text: as §1, §2, §3

Pseudomonas A. = assay: Preservative efficacy test (PET), Pseudomonas A.; conditions: boric acid/mannitol/NaCl, pH 6.0
Source text: as §1, §2, §3

SMILES: OC[P+](CO)(CO)CO.[Cl-] [Tetrakis-Hydroxymethyl-Phosphonium Chloride]
- Staph Aureus (6 Hr), PET log order reduction (Staph Aureus; 0.0025 % w/v): 5.0/5.0/
- Staph Aureus (6 Hr), PET log order reduction (Staph Aureus; 0.005 % w/v): 5.0/5.0/
- Staph Aureus (6 Hr), PET log order reduction (Staph Aureus; 0.01 % w/v): 5.0/5.0/
- Staph Aureus (7 Day), PET log order reduction (Staph Aureus; 0.0025 % w/v): 5.0/5.0/5.0
- Staph Aureus (7 Day), PET log order reduction (Staph Aureus; 0.005 % w/v): 5.0/5.0/5.0
- Staph Aureus (7 Day), PET log order reduction (Staph Aureus; 0.01 % w/v): 5.0/5.0/5.0
- Staph Aureus (14 Day), PET log order reduction (Staph Aureus; 0.0025 % w/v): 5.0/5.0/5.0
- Staph Aureus (14 Day), PET log order reduction (Staph Aureus; 0.005 % w/v): 5.0/5.0/5.0
- Staph Aureus (14 Day), PET log order reduction (Staph Aureus; 0.01 % w/v): 5.0/5.0/5.0
- Staph Aureus (24 Hr), PET log order reduction (Staph Aureus; 0.0025 % w/v): 5.0/5.0/
- Staph Aureus (24 Hr), PET log order reduction (Staph Aureus; 0.005 % w/v): 5.0/5.0/
- Staph Aureus (24 Hr), PET log order reduction (Staph Aureus; 0.01 % w/v): 5.0/5.0/
- Staph Aureus (28 Day), PET log order reduction (Staph Aureus; 0.0025 % w/v): 5.0/5.0/5.0
- Staph Aureus (28 Day), PET log order reduction (Staph Aureus; 0.005 % w/v): 5.0/5.0/5.0
- Staph Aureus (28 Day), PET log order reduction (Staph Aureus; 0.01 % w/v): 5.0/5.0/5.0
- PET Results (Pass/Fail) (Bacteria, Fungi; 0.0025 % w/v): Pass USP
- PET Results (Pass/Fail) (Bacteria, Fungi; 0.005 % w/v): Pass USP
- PET Results (Pass/Fail) (Bacteria, Fungi; 0.01 % w/v): Pass EP-B
- preservation / antimicrobial efficacy, in words (Bacteria, Fungi; summary statements of the text on the PET tables): highly desirable antimicrobial efficacy
- Candida A. (7 Day), PET log order reduction (Candida A.; 0.0025 % w/v): 0.0
- Candida A. (7 Day), PET log order reduction (Candida A.; 0.005 % w/v): 0.1
- Candida A. (7 Day), PET log order reduction (Candida A.; 0.01 % w/v): 0.9
- Candida A. (14 Day), PET log order reduction (Candida A.; 0.0025 % w/v): 0.2
- Candida A. (14 Day), PET log order reduction (Candida A.; 0.005 % w/v): 0.7
- Candida A. (14 Day), PET log order reduction (Candida A.; 0.01 % w/v): 2.2
- Candida A. (28 Day), PET log order reduction (Candida A.; 0.0025 % w/v): 1.2
- Candida A. (28 Day), PET log order reduction (Candida A.; 0.005 % w/v): 2.0
- Candida A. (28 Day), PET log order reduction (Candida A.; 0.01 % w/v): 3.9
- cytotoxicity (neutral red retention of canine epithelial cells) (canine epithelial cells; FIG. 1, greater neutral red retention = lower cytotoxicity): extremely low level of cytotoxicity
- cytotoxicity (neutral red retention of canine epithelial cells) (canine epithelial cells; FIG. 2, various concentrations and vehicles): extremely low toxicity regardless of concentration and/or the vehicle
- E. Coli (6 Hr), PET log order reduction (E. Coli; 0.0025 % w/v): 5.1/5.1/
- E. Coli (6 Hr), PET log order reduction (E. Coli; 0.005 % w/v): 5.1/5.1/
- E. Coli (6 Hr), PET log order reduction (E. Coli; 0.01 % w/v): 5.1/5.1/
- E. Coli (7 Day), PET log order reduction (E. Coli; 0.0025 % w/v): 5.1/5.1/5.1
- E. Coli (7 Day), PET log order reduction (E. Coli; 0.005 % w/v): 5.1/5.1/5.1
- E. Coli (7 Day), PET log order reduction (E. Coli; 0.01 % w/v): 5.1/5.1/5.1
- E. Coli (14 Day), PET log order reduction (E. Coli; 0.0025 % w/v): 5.1/5.1/5.1
- E. Coli (14 Day), PET log order reduction (E. Coli; 0.005 % w/v): 5.1/5.1/5.1
- E. Coli (14 Day), PET log order reduction (E. Coli; 0.01 % w/v): 5.1/5.1/5.1
- E. Coli (24 Hr), PET log order reduction (E. Coli; 0.0025 % w/v): 5.1/5.1/
- E. Coli (24 Hr), PET log order reduction (E. Coli; 0.005 % w/v): 5.1/5.1/
- E. Coli (24 Hr), PET log order reduction (E. Coli; 0.01 % w/v): 5.1/5.1/
- E. Coli (28 Day), PET log order reduction (E. Coli; 0.0025 % w/v): 5.1/5.1/5.1
- E. Coli (28 Day), PET log order reduction (E. Coli; 0.005 % w/v): 5.1/5.1/5.1
- E. Coli (28 Day), PET log order reduction (E. Coli; 0.01 % w/v): 5.1/5.1/5.1
- Aspergillus N. (7 D), PET log order reduction (Aspergillus N.; 0.0025 % w/v): 3.1
- Aspergillus N. (7 D), PET log order reduction (Aspergillus N.; 0.005 % w/v): 3.3
- Aspergillus N. (7 D), PET log order reduction (Aspergillus N.; 0.01 % w/v): 3.2
- Aspergillus N. (14 D), PET log order reduction (Aspergillus N.; 0.0025 % w/v): 2.9
- Aspergillus N. (14 D), PET log order reduction (Aspergillus N.; 0.005 % w/v): 3.2
- Aspergillus N. (14 D), PET log order reduction (Aspergillus N.; 0.01 % w/v): 5.3
- Aspergillus N. (28 Day), PET log order reduction (Aspergillus N.; 0.0025 % w/v): 2.4
- Aspergillus N. (28 Day), PET log order reduction (Aspergillus N.; 0.005 % w/v): 3.2
- Aspergillus N. (28 Day), PET log order reduction (Aspergillus N.; 0.01 % w/v): 5.3
- Pseudomonas A. (6 Hr), PET log order reduction (Pseudomonas A.; 0.0025 % w/v): 3.3
- Pseudomonas A. (6 Hr), PET log order reduction (Pseudomonas A.; 0.005 % w/v): 5.0/5.0/
- Pseudomonas A. (6 Hr), PET log order reduction (Pseudomonas A.; 0.01 % w/v): 5.0/5.0/
- Pseudomonas A. (7 Day), PET log order reduction (Pseudomonas A.; 0.0025 % w/v): 5.0/5.0/5.0
- Pseudomonas A. (7 Day), PET log order reduction (Pseudomonas A.; 0.005 % w/v): 5.0/5.0/5.0
- Pseudomonas A. (7 Day), PET log order reduction (Pseudomonas A.; 0.01 % w/v): 5.0/5.0/5.0
- Pseudomonas A. (14 Day), PET log order reduction (Pseudomonas A.; 0.0025 % w/v): 5.0/5.0/5.0
- Pseudomonas A. (14 Day), PET log order reduction (Pseudomonas A.; 0.005 % w/v): 5.0/5.0/5.0
- Pseudomonas A. (14 Day), PET log order reduction (Pseudomonas A.; 0.01 % w/v): 5.0/5.0/5.0
- Pseudomonas A. (24 Hr), PET log order reduction (Pseudomonas A.; 0.0025 % w/v): 5.0
- Pseudomonas A. (24 Hr), PET log order reduction (Pseudomonas A.; 0.005 % w/v): 5.0/5.0/
- Pseudomonas A. (24 Hr), PET log order reduction (Pseudomonas A.; 0.01 % w/v): 5.0/5.0/
- Pseudomonas A. (28 Day), PET log order reduction (Pseudomonas A.; 0.0025 % w/v): 5.0/5.0/5.0
- Pseudomonas A. (28 Day), PET log order reduction (Pseudomonas A.; 0.005 % w/v): 5.0/5.0/5.0
- Pseudomonas A. (28 Day), PET log order reduction (Pseudomonas A.; 0.01 % w/v): 5.0/5.0/5.0

From patent US9694021B2, “Pharmaceutical compositions with phosphonium antimicrobial agents” (Alcon Research, Ltd., priority 2010, dated 2017)
